In ChEMBL document CHEMBL5370681, “Lipid Tales: Optimizing Arylomycin Membrane Anchors” (ACS Med Chem Lett, 2023):
Converted amounts (≈) assume the structure as drawn.

Experiments:
[1] = biological target: Signal peptidase I (Escherichia coli K-12) (UniProt P00803); assay: Inhibition of LepB in Escherichia coli IMP assessed as antibacterial activity by measuring reduction in bacterial growth incubated for 18 hrs by two-fold serial dilution method
[2] = system: Escherichia coli; assay: Antibacterial activity against Escherichia coli 25922 incubated for 18 hrs by two-fold serial dilution method; format: functional
[3] = system: Escherichia coli; assay: Antibacterial activity against Escherichia coli 25922 incubated for 18 hrs in presence of 50% mouse serum by two-fold serial dilution method; format: functional
[4] = Unbound fraction in human plasma at 5 uM measured after 24 hrs by LC-MS/MS analysis; format: ADME, cell-free

Sequence of Signal peptidase I (Escherichia coli K-12) (P00803 whole entry): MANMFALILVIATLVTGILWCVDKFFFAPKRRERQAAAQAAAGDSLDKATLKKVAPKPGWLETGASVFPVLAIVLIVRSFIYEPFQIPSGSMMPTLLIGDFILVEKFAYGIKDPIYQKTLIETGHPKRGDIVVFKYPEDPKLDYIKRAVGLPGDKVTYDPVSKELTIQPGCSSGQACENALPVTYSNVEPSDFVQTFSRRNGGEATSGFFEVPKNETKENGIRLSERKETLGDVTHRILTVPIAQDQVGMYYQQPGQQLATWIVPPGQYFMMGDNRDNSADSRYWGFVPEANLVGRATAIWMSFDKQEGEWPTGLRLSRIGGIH

Compound	MIC [1] [µg/mL]	MIC [2] [µg/mL]	MIC [3] [µg/mL]	fraction unbound at 24 h, 5 µM [4]
C[C@@H]1NC(=O)[C@@H](N(C)C(=O)[C@H](CCN)NC(=O)c2cnc(-c3ccc(C(C)(C)C)cc3)cc2N)c2ccc(OCCN)c(c2)-c2cc(ccc2OCCN)C[C@@H](C(=O)NCC#N)NC1=O	0.011 (≈ 0.0124 µM)	0.22 (≈ 0.247 µM)	0.34	–
Cc1cc(-c2ccc(C(C)C)cc2)ccc1C(=O)N[C@@H](CCN)C(=O)N(C)[C@@H]1C(=O)N[C@@H](C)C(=O)N[C@H](C(=O)NCC#N)Cc2ccc(OCCN)c(c2)-c2cc1ccc2OCCN	0.007 (≈ 0.00801 µM)	0.15 (≈ 0.172 µM)	0.96	0.086
Cc1nc(-c2ccc(C(C)(C)C)cc2)cc(N)c1C(=O)N[C@@H](CCN)C(=O)N(C)[C@@H]1C(=O)N[C@@H](C)C(=O)N[C@H](C(=O)NCC#N)Cc2ccc(OCCN)c(c2)-c2cc1ccc2OCCN	0.007 (≈ 0.00774 µM)	0.12 (≈ 0.133 µM)	0.08	–
CCCCc1ccc(-c2ccc(C(=O)N[C@@H](CCN)C(=O)N(C)[C@@H]3C(=O)N[C@@H](C)C(=O)N[C@H](C(=O)NCC#N)Cc4ccc(OCCN)c(c4)-c4cc3ccc4OCCN)cc2)cc1	0.016 (≈ 0.0183 µM)	0.2 (≈ 0.229 µM)	2.1	–
C[C@@H]1NC(=O)[C@@H](N(C)C(=O)[C@H](CCN)NC(=O)c2ccc(-c3ccc(Cl)cc3)cc2)c2ccc(OCCN)c(c2)-c2cc(ccc2OCCN)C[C@@H](C(=O)NCC#N)NC1=O	0.022 (≈ 0.0258 µM)	1.5 (≈ 1.76 µM)	3.8	0.2
Cc1nc(-c2ccc(C(C)(C)C)cc2)nc(C)c1C(=O)N[C@@H](CCN)C(=O)N(C)[C@@H]1C(=O)N[C@@H](C)C(=O)N[C@H](C(=O)NCC#N)Cc2ccc(OCCN)c(c2)-c2cc1ccc2OCCN	0.003 (≈ 0.00332 µM)	0.13 (≈ 0.144 µM)	0.17	0.22
Cc1cc(-c2ccc(C(C)(C)C)cc2)nc(N)c1C(=O)N[C@@H](CCN)C(=O)N(C)[C@@H]1C(=O)N[C@@H](C)C(=O)N[C@H](C(=O)NCC#N)Cc2ccc(OCCN)c(c2)-c2cc1ccc2OCCN	0.007 (≈ 0.00774 µM)	0.23 (≈ 0.254 µM)	0.45	0.058
Cc1cc(-c2ccc(Cl)cc2)ccc1C(=O)N[C@@H](CCN)C(=O)N(C)[C@@H]1C(=O)N[C@@H](C)C(=O)N[C@H](C(=O)NCC#N)Cc2ccc(OCCN)c(c2)-c2cc1ccc2OCCN	0.01 (≈ 0.0115 µM)	0.83 (≈ 0.958 µM)	2.3	0.13
C[C@@H]1NC(=O)[C@@H](N(C)C(=O)[C@H](CCN)NC(=O)c2ccc(-c3ccc(C(C)(C)C)cc3)nc2N)c2ccc(OCCN)c(c2)-c2cc(ccc2OCCN)C[C@@H](C(=O)NCC#N)NC1=O	0.011 (≈ 0.0124 µM)	0.45 (≈ 0.506 µM)	0.89	0.063
CCCCCCCCC(=O)N[C@@H](CCN)C(=O)N(C)[C@@H]1C(=O)N[C@@H](C)C(=O)N[C@H](C(=O)NCC#N)Cc2ccc(OCCN)c(c2)-c2cc1ccc2OCCN	0.12 (≈ 0.154 µM)	23 (≈ 29.6 µM)	61	–
CCCCCCCC(=O)N[C@@H](CCN)C(=O)N(C)[C@@H]1C(=O)N[C@@H](C)C(=O)N[C@H](C(=O)NCC#N)Cc2ccc(OCCN)c(c2)-c2cc1ccc2OCCN	0.35 (≈ 0.458 µM)	31 (≈ 40.6 µM)	60	0.59
CNc1nc(-c2ccc(C(C)(C)C)cc2)ncc1C(=O)N[C@@H](CCN)C(=O)N(C)[C@@H]1C(=O)N[C@@H](C)C(=O)N[C@H](C(=O)NCC#N)Cc2ccc(OCCN)c(c2)-c2cc1ccc2OCCN	0.007 (≈ 0.00773 µM)	0.34 (≈ 0.376 µM)	0.68	–
Cc1nc(-c2ccc(C(C)(C)C)cc2)ccc1C(=O)N[C@@H](CCN)C(=O)N(C)[C@@H]1C(=O)N[C@@H](C)C(=O)N[C@H](C(=O)NCC#N)Cc2ccc(OCCN)c(c2)-c2cc1ccc2OCCN	0.004 (≈ 0.0045 µM)	0.12 (≈ 0.135 µM)	0.12	–
CCCCCCCCCCCCCC(=O)N[C@@H](CCN)C(=O)N(C)[C@@H]1C(=O)N[C@@H](C)C(=O)N[C@H](C(=O)NCC#N)Cc2ccc(OCCN)c(c2)-c2cc1ccc2OCCN	0.014 (≈ 0.0165 µM)	0.24 (≈ 0.283 µM)	3.8	–
Cc1cc(-c2ccc(C(C)(C)C)cc2)ncc1C(=O)N[C@@H](CCN)C(=O)N(C)[C@@H]1C(=O)N[C@@H](C)C(=O)N[C@H](C(=O)NCC#N)Cc2ccc(OCCN)c(c2)-c2cc1ccc2OCCN	0.004 (≈ 0.0045 µM)	0.12 (≈ 0.135 µM)	0.24	0.11
CCc1ccc(-c2ccc(C(=O)N[C@@H](CCN)C(=O)N(C)[C@@H]3C(=O)N[C@@H](C)C(=O)N[C@H](C(=O)NCC#N)Cc4ccc(OCCN)c(c4)-c4cc3ccc4OCCN)c(C)c2)cc1	0.008 (≈ 0.0093 µM)	0.31 (≈ 0.36 µM)	0.75	0.053
